Values after ≈ are worked out from the molar mass of the structure shown. Non-standard residues stand in square brackets, D forms with d. Residues, ends and D or L forms follow the SMILES beside them. *: point of attachment. Arg(NO2) = N=C(NCCC[C@H](N)C(=O)O)N[N+](=O)[O-]; NMeR = CN[C@@H](CCCNC(=N)N)C(=O)O; Hyp = O=C(O)[C@@H]1C[C@@H](O)CN1; hArg = N=C(N)NCCCC[C@H](N)C(=O)O; β3hR = N=C(N)NCCC[C@H](N)CC(=O)O; Agp = N=C(N)NC[C@H](N)C(=O)O; Orn = NCCC[C@H](N)C(=O)O; Dap = NC[C@H](N)C(=O)O; For = O=C*
Legend:
[1] = system: M. luteus 10240; assay: Growth inhibition assay (microdilution MIC); assay type: cell-based, Micrococcus luteus; conditions: 10240, 20 h
Protocol: (§1) The minimum inhibitory concentrations (MIC) of the antimicrobial peptides and peptide derivatives were determined in microdilution assays. These used a continuous peptide dilution in sterile flat-bottomed 96-well microtiter plates (polystyrene, Greiner Bio-One GmbH, Frickenhausen, Germany) and a total volume of 100 μL per well. The aqueous peptide or peptidomimetic solutions were diluted with 1% TSB water, to obtain a final concentration of 256 μg/mL. 50 μL of the peptide or peptidomimetic solution was pipetted into the first well of each series and stirred. From this solution, 50 μL was transferred to the second well, stirred and again 50 μL was transferred to the next well, and so on. A double dilution series is obtained, beginning at 256 μg/mL in the first well to 125 ng/mL in the twelfth well. The bacteria, e.g. E. coli BL21 A1, were cultured overnight at 37° C. in nutrient broth (NB, Carl Roth GmbH+Co. KG, Karlsruhe, Germany). 50 μL of a 5×10^6 bacteria/mL suspension in 1% TSB was added to each well of the microtiter plate and thus a final concentration of the peptides or peptidomimetics from 128 μg/mL (well 1) to 62.5 ng/mL (well 12) was established in each series. The plates were incubated at 37° C. for 20 h and then the absorption was measured at 595 nm with a TECAN microtiter plate spectrophotometer (Tecan Trading AG, Mannedorf, Switzerland). The MIC values of all peptides and peptidomimetics were determined in triplicate. Sterile water was used as negative control. The MIC value represents the lowest peptide concentration at which no bacterial growth is observed after an incubation time of 20 h at 37° C.
(§2) The MIC values of the peptides and peptide derivatives against Escherichia coli BL21 A1 and Micrococcus luteus ATCC 10240 are given in Table 7.

[2] = system: E. coli BL21 A1; assay type: cell-based, Escherichia coli; conditions: BL21, 20 h
Protocol: as §1, §2

| SMILES | MIC M. luteus 10240 [1] | MIC E. coli BL21 A1 [2] |
| --- | --- | --- |
| CC[C@H](C)[C@H](NC(=O)[C@H](CCCNC(=N)N)NC(=O)[C@H](CCCNC(=N)N)NC(=O)[C@@H]1CCCN1C(=O)[C@@H]1CCCN1C(=O)[C@H](CCCNC(=N)N)NC(=O)[C@@H]1CCCN1C(=O)[C@H](CCCNC(=N)N)NC(=O)[C@@H]1CCCN1C(=O)[C@H](CC(C)C)NC(=O)[C@H](Cc1ccc(O)cc1)NC(=O)[C@@H]1CCCN1C(=O)[C@@H]1CCCN1C(=O)[C@H](CCCCN)NC(=O)[C@H](CC(=O)O)NC(=O)[C@@H](NC=O)C(C)C)C(=O)N[C@@H](Cc1ccc(O)cc1)C(=O)N[C@@H](CC(N)=O)C(=O)N[C@@H](CCCNC(=N)N)C(=O)O [SEQ ID NO. 81] (For-VDKPPYLPRPRPPRRIYNR-OH) | 32 mg/L (≈ 13.2 µM) | 128 mg/L (≈ 52.9 µM) |
| CC[C@H](C)[C@H](NC(=O)[C@H](CCCNC(=N)N)NC(=O)[C@H](CCCNC(=N)N)NC(=O)[C@@H]1CCCN1C(=O)[C@@H]1CCCN1C(=O)[C@@H]1C[C@@H](O)CN1C(=O)[C@@H]1CCCN1C(=O)[C@H](CCCNC(=N)N)NC(=O)[C@@H]1CCCN1C(=O)[C@H](CC(C)C)NC(=O)[C@H](Cc1ccc(O)cc1)NC(=O)[C@@H]1CCCN1C(=O)[C@@H]1CCCN1C(=O)[C@H](CCCCN)NC(=O)[C@H](CC(=O)O)NC(=O)[C@@H](N)C(C)C)C(=O)N[C@@H](Cc1ccc(O)cc1)C(=O)N[C@@H](CC(N)=O)C(=O)N[C@@H](CCCNC(=N)N)C(=O)O [compound 3] (H-VDKPPYLPRP[Hyp]PPRRIYNR-OH) | 32 mg/L (≈ 13.6 µM) | 128 mg/L (≈ 54.5 µM) |
| CC[C@H](C)[C@H](NC(=O)[C@H](CCCNC(=N)N)NC(=O)[C@H](CCCNC(=N)N)NC(=O)[C@@H]1CCCN1C(=O)[C@@H]1CCCN1C(=O)[C@H](CCCNC(=N)N)NC(=O)[C@@H]1CCCN1C(=O)[C@H](CCCNC(=N)N)NC(=O)[C@@H]1CCCN1C(=O)[C@H](CC(C)C)NC(=O)[C@H](Cc1ccc(O)cc1)NC(=O)[C@@H]1CCCN1C(=O)[C@@H]1CCCN1C(=O)[C@H](CCCCN)NC(=O)[C@H](CC(=O)O)NC(=O)[C@@H](N)C(C)C)C(=O)N[C@@H](Cc1ccc(O)cc1)C(=O)N[C@@H](CC(N)=O)C(=O)N[C@@H](CCCN)C(=O)N[C@@H](CC(N)=O)C(N)=O [compound 26] (H-VDKPPYLPRPRPPRRIYN[Orn]N-NH2) | 8 mg/L (≈ 3.25 µM) | 8 mg/L (≈ 3.25 µM) |
| CC[C@H](C)[C@H](NC(=O)[C@H](CCCNC(=N)N)NC(=O)[C@H](CCCNC(=N)N)NC(=O)[C@@H]1CCCN1C(=O)[C@@H]1CCCN1C(=O)[C@H](CCCNC(=N)N)NC(=O)[C@@H]1CCCN1C(=O)[C@H](CCCNC(=N)N)NC(=O)[C@@H]1CCCN1C(=O)[C@H](CC(C)C)NC(=O)[C@H](Cc1ccc(O)cc1)NC(=O)[C@@H]1CCCN1C(=O)[C@@H]1CCCN1C(=O)[C@H](CCCCN)NC(=O)[C@H](CC(=O)O)NC(=O)[C@@H](N)C(C)C)C(=O)N[C@@H](Cc1ccc(O)cc1)C(=O)N[C@@H](CC(N)=O)C(=O)N[C@@H](CNC(C)=O)C(N)=O [compound 52] (H-VDKPPYLPRPRPPRRIYN[Dap](Ac)-NH2; N-terminus assumed) | 64 mg/L (≈ 27.1 µM) | 32 mg/L (≈ 13.5 µM) |
| CC[C@H](C)[C@H](NC(=O)[C@H](CCCNC(=N)N)NC(=O)[C@H](CCCNC(=N)N)NC(=O)[C@@H]1CCCN1C(=O)[C@@H]1CCCN1C(=O)[C@H](CCCNC(=N)N)NC(=O)[C@@H]1CCCN1C(=O)[C@H](CCCNC(=N)N)NC(=O)[C@@H]1CCCN1C(=O)[C@H](CC(C)C)NC(=O)[C@H](Cc1ccc(O)cc1)NC(=O)[C@@H]1CCCN1C(=O)[C@@H]1CCCN1C(=O)[C@H](CCCCN)NC(=O)[C@H](CC(=O)O)NC(=O)[C@@H](N)C(C)C)C(=O)N[C@@H](Cc1ccc(O)cc1)C(=O)N[C@@H](CC(N)=O)C(=O)N[C@@H](CNC(=N)N)C(N)=O [compound 54] (H-VDKPPYLPRPRPPRRIYN[Agp]-NH2) | 8 mg/L (≈ 3.39 µM) | 8 mg/L (≈ 3.39 µM) |
| CC[C@H](C)[C@H](NC(=O)[C@H](CCCNC(=N)N)NC(=O)[C@H](CCCNC(=N)N)NC(=O)[C@@H]1CCCN1C(=O)[C@@H]1CCCN1C(=O)[C@H](CCCNC(=N)N)NC(=O)[C@@H]1CCCN1C(=O)[C@H](CCCNC(=N)N)NC(=O)[C@@H]1CCCN1C(=O)[C@H](CC(C)C)NC(=O)[C@H](Cc1ccc(O)cc1)NC(=O)[C@@H]1CCCN1C(=O)[C@@H]1CCCN1C(=O)[C@H](CCCCN)NC(=O)[C@H](CC(=O)O)NC(=O)[C@@H](N)C(C)C)C(=O)N[C@@H](Cc1ccc(O)cc1)C(=O)N[C@@H](CC(N)=O)C(=O)N[C@@H](CCCNC(=N)N[N+](=O)[O-])C(N)=O [compound 55] (H-VDKPPYLPRPRPPRRIYN[Arg(NO2)]-NH2) | 16 mg/L (≈ 6.57 µM) | 8 mg/L (≈ 3.29 µM) |
| CC[C@H](C)[C@H](NC(=O)[C@H](CCCNC(=N)N)NC(=O)[C@H](CCCNC(=N)N)NC(=O)[C@@H]1CCCN1C(=O)[C@@H]1CCCN1C(=O)[C@H](CCCNC(=N)N)NC(=O)[C@@H]1CCCN1C(=O)[C@H](CCCNC(=N)N)NC(=O)[C@@H]1CCCN1C(=O)[C@H](CC(C)C)NC(=O)[C@H](Cc1ccc(O)cc1)NC(=O)[C@@H]1CCCN1C(=O)[C@@H]1CCCN1C(=O)[C@H](CCCCN)NC(=O)[C@H](CC(=O)O)NC(=O)[C@@H](N)C(C)C)C(=O)N[C@@H](Cc1ccc(O)cc1)C(=O)N[C@@H](CC(N)=O)C(=O)N(C)[C@@H](CCCNC(=N)N)C(N)=O [compound 56] (H-VDKPPYLPRPRPPRRIYN[NMeR]-NH2; N-terminus assumed) | 4 mg/L (≈ 1.66 µM) | 8 mg/L (≈ 3.33 µM) |
| CC[C@H](C)[C@H](NC(=O)[C@H](CCCNC(=N)N)NC(=O)[C@H](CCCNC(=N)N)NC(=O)[C@@H]1CCCN1C(=O)[C@@H]1CCCN1C(=O)[C@H](CCCNC(=N)N)NC(=O)[C@@H]1CCCN1C(=O)[C@H](CCCNC(=N)N)NC(=O)[C@@H]1CCCN1C(=O)[C@H](CC(C)C)NC(=O)[C@H](Cc1ccc(O)cc1)NC(=O)[C@@H]1CCCN1C(=O)[C@@H]1CCCN1C(=O)[C@H](CCCCN)NC(=O)[C@H](CC(=O)O)NC(=O)[C@@H](N)C(C)C)C(=O)N[C@@H](Cc1ccc(O)cc1)C(=O)N[C@@H](CC(N)=O)C(=O)N[C@@H](CCCCNC(=N)N)C(N)=O [compound 57] (H-VDKPPYLPRPRPPRRIYN[hArg]-NH2) | 8 mg/L (≈ 3.33 µM) | 8 mg/L (≈ 3.33 µM) |
| CC[C@H](C)[C@H](NC(=O)C[C@H](CCCNC(=N)N)NC(=O)[C@H](CCCNC(=N)N)NC(=O)[C@@H]1CCCN1C(=O)[C@@H]1CCCN1C(=O)[C@H](CCCNC(=N)N)NC(=O)[C@@H]1CCCN1C(=O)[C@H](CCCNC(=N)N)NC(=O)[C@@H]1CCCN1C(=O)[C@H](CC(C)C)NC(=O)[C@H](Cc1ccc(O)cc1)NC(=O)[C@@H]1CCCN1C(=O)[C@@H]1CCCN1C(=O)[C@H](CCCCN)NC(=O)[C@H](CC(=O)O)NC(=O)[C@@H](N)C(C)C)C(=O)N[C@@H](Cc1ccc(O)cc1)C(=O)N[C@@H](CC(N)=O)C(=O)N[C@@H](CCCNC(=N)N)C(N)=O [compound 62] (H-VDKPPYLPRPRPPR[β3hR]IYNR-NH2) | 16 mg/L (≈ 6.66 µM) | 4 mg/L (≈ 1.66 µM) |
| CC[C@H](C)[C@H](NC(=O)[C@H](CNC(=N)N)NC(=O)[C@H](CCCNC(=N)N)NC(=O)[C@@H]1CCCN1C(=O)[C@@H]1CCCN1C(=O)[C@H](CCCNC(=N)N)NC(=O)[C@@H]1CCCN1C(=O)[C@H](CCCNC(=N)N)NC(=O)[C@@H]1CCCN1C(=O)[C@H](CC(C)C)NC(=O)[C@H](Cc1ccc(O)cc1)NC(=O)[C@@H]1CCCN1C(=O)[C@@H]1CCCN1C(=O)[C@H](CCCCN)NC(=O)[C@H](CC(=O)O)NC(=O)[C@@H](N)C(C)C)C(=O)N[C@@H](Cc1ccc(O)cc1)C(=O)N[C@@H](CC(N)=O)C(=O)N[C@@H](CCCCNC(=N)N)C(N)=O [compound 65] (H-VDKPPYLPRPRPPR[Agp]IYN[hArg]-NH2) | 2 mg/L (≈ 0.842 µM) | 4 mg/L (≈ 1.68 µM) |
| CC[C@H](C)[C@H](NC(=O)[C@H](CNC(=N)N)NC(=O)[C@H](CCCNC(=N)N)NC(=O)[C@@H]1CCCN1C(=O)[C@@H]1CCCN1C(=O)[C@H](CCCNC(=N)N)NC(=O)[C@@H]1CCCN1C(=O)[C@H](CCCNC(=N)N)NC(=O)[C@@H]1CCCN1C(=O)[C@H](CC(C)C)NC(=O)[C@H](Cc1ccc(O)cc1)NC(=O)[C@@H]1CCCN1C(=O)[C@@H]1CCCN1C(=O)[C@H](CCCCN)NC(=O)[C@H](CC(=O)O)NC(=O)[C@@H](N)C(C)C)C(=O)N[C@@H](Cc1ccc(O)cc1)C(=O)N[C@@H](CC(N)=O)C(=O)N[C@@H](CNC(=N)N)C(N)=O [compound 66] (H-VDKPPYLPRPRPPR[Agp]IYN[Agp]-NH2) | 4 mg/L (≈ 1.71 µM) | 8 mg/L (≈ 3.43 µM) |

— US8686113B2 (priority 2009, dated 2014)
